In patent publication US20230240988A1, “FLUID GEL COMPOSITIONS” (The University of Birmingham, priority 2020, published 2023):
Like-named read-outs stand apart in the source and are kept apart here.

Experiments:
[1] = Release assay of active agents from PEG-DA fluid gel (trans-well, UV/Vis); format: physicochemical; conditions: 3% v/v PEG-DA fluid gel (500 rpm), PBS 37° C., 5 hrs
Procedure: • Active amounts: […] • Standard concentrations of active in PBS were prepared. • Standards were pipetted into a quartz cuvette (1 mm pathlength). • […] spectroscopy was used to measure absorbance between 200 and 700 nm wavelength. • Curves were plotted and used to determine standard curves which were used to determine concentrations. • 0.5 ml PBS was added to the well of a 24 well plate. • The PBS was incubated at 37° C. to equilibrate. 0.1 ml of the fluid gel containing active was placed in a trans-well insert. • The trans-well insert was placed into a well containing PBS. • After a given time period the trans-well insert was removed and placed in a fresh well of PBS. • The release media was then removed and analysed using […] spectroscopy. Concentrations were derived from the standard curves and cumulative release plotted as a function of time.

[2] = tested on: primary ovine chondrocytes; assay: PrestoBlue metabolic activity assay; format: cell-based
Procedure: All cell work was undertaken on primary ovine chondrocytes. Cells were first expanded, then seeded into wells 24 hrs prior to the application of the fluid gels. Once treatments were added, the cells were cultured for a further 3 days before testing for both metabolic activity and cell viability. In the presence of functionalised particles, suspension wells were used to promote adhesion to the gelled particles, away from the plastic. Metabolic activity assay was undertaken using a PrestoBlue™ assay kit (Invitrogen). In brief, cells were washed with Dulbecco's PBS, and 1 mL of PrestoBlue™ supplemented medium (10%) was added to each well and incubated for 4 hrs. 50 μL of supernatant from each well was transferred to one well of a 96 well plate and fluorescence was measured using a Tecan Spark (Tecan Group Ltd, UK) plate reader with excitation/emission wavelengths set at 550/620 nm.

Row | Compound | release of active agent from fluid gel [1] | other results
1 | CC(C)Cc1ccc(C(C)C(=O)O)cc1 (stereo not shown) [Ibuprofen, ibuprofen] | able to release | 
2 | CC(C)(O)C(=O)c1ccc(OCCO)cc1 [Irgacure-2959, 1-[4-(2-Hydroxyethoxy)-phenyl]-2-hydroxy-2-methyl-1-propane-1-one] |  | cell metabolic activity, individual formulation components [2]: slight reduction in cell metabolism
3 | CC(C)(O)C(=O)c1ccccc1 [Omnirad-1173, 2-hydroxy-2-methyl-1-phenylpropanone] |  | cell metabolic activity, individual formulation components ([2]; 3 days culture, PEG-DA not cured, 3.5% & 5%): slight reduction in cell metabolism, although not statistical
4 | Dextran | able to release | 
